Results published in the NIST ThermoML archive (doi:10.1021/je060190e).

Conditions: 101.33 kPa, Liquid

CCCCn1cc[n+](C)c1.COS(=O)(=O)[O-] [1-butyl-3-methylimidazolium methyl sulfate]
Conditions | mass density [kg/m3]
290.95 K | 1214.9
292.95 K | 1213.5
294.95 K | 1212.1
297 K | 1210.7
299 K | 1209.4
301 K | 1208
303 K | 1206.7
305 K | 1205.3
307.05 K | 1204
